Data on 1 compound can be found in patent US6242445A, “Benzimidazole derivative” (Kureha Chemical Industry Co., Ltd., priority 1998, dated 2001).

Experiment [1] has as its system rat suffering from a kidney disease. Particulars: J. Clinical Invest., 90: 766-771, 1992; cited from earlier work.
In experiment [2] the test system is rat suffering from hyperlipemia. The note with it: Nephron, 65: 426-432, 1993, cited from earlier work.
For experiment [3], the system named is kidney disease model rats. Nature of the experiment: Action to kidney diseases, renal function indicatory values. It counts as in vivo, Sprague-Dawley female rats. The note with it: 20 mg/kg/day, two weeks. As for the experimental part:
(§1) The kidney disease model rats were prepared by a ligature of branches of renal artery in accordance with a conventional method. Namely, the left hilum renalis of Sprague-Dawley female rats was exposed under anesthesia, and one of four secondary branches of the renal artery was left unligated, while the remaining three branches were ligated, respectively. After a week, the hilum renalis (artery, vein, and ureter) of the right kidney were further ligated to thereby prepare rats whose renal function was lowered to approximately 1/8 of the normal function. Each group consisted of eight rats. The drugs to be tested (20 mg/kg) were administered to each administering group, and only water was administered to a control group. Two days after the administration, the systolic blood pressure was measured by the tail cuff method using a blood pressure measuring apparatus (UR^5000; Ueda).
In this Example, an action to kidney diseases was evaluated on the basis of a renal function indicatory value.
Fifteen groups (8 rats per group) were prepared in a manner such that there was no major difference between the groups in the serum creatinine value and the blood urea nitrogen value indicating renal function. The rats in each group were allowed to freely take up food and water. […] To the rats in the control group, only water was forcibly orally administered every day. After two weeks, 0.2 ml of blood was collected from the carotid artery of the rats under anesthesia, and centrifuged to obtain serum. Using 25 μl of the serum, the serum creatinine (Scr) was measured by a creatinine analytical instrument (Beckman). Using 10 μl of the serum, the blood urea nitrogen (BUN) was measured by a BUN analytical instrument (Beckman). The creatinine clearance was evaluated as follows:
After the serum creatinine measurement, rats were placed in urinary metabolic cages for 24 hours to collect urine. A urinary creatine concentration (Ucr) was measured by a creatinine analytical instrument, and a total volume of urination (Uvol) was also measured. The creatinine clearance (CCr) was calculated by the following formula: [formula]
In the above formula, the unit of "Ucr" and "Scr" is "mg/ml" and the unit of "Uvol" is "ml".

Experiment [4] relates to kidney disease model rats. The experiment in a line: Survival time of kidney diseased animals. It counts as in vivo, Sprague-Dawley female rats. Particulars: 20 mg/kg/day; observation period eight weeks (upper limit); control 5.0. As to the method:
as §1, with “In this Example, an action to lower blood pressure was evaluated. That is, each of 2-ethoxy-1-[[4'- (2'-N,N-dimethylamino-ethoxycarbonyl) phenyl]methyl]-1H-benzimidazole-6-carboxylic acid morpholide (Compound No. 13) prepared in Example 6, 2-ethoxy-1-[[4'-(2"-morpholinoethoxycarbonyl)-phenyl]methyl]-1H-benzimidazole-6-carboxylic acid piperidinamide (Compound No. 57) prepared in Example 28, or the reference substance was forcibly orally administered to kidney disease model rats, and the action of lowering the blood pressure was observed. The kidney” for “The kidney”
In this Example, an action to survival time of kidney diseased animals was evaluated. As compounds to be examined, 2-ethoxy-1-[[4'-(2"-N,N-dimethylamino-ethoxycarbonyl)-phenyl]methyl]-1H-benzimidazole-6-carboxylic acid morpholide (Compound No. 13) prepared in Example 6, and 2-ethoxy-1-[[4'-(2"-morpholinoethoxycarbonyl)phenyl]methyl]-1H-benzimidazole-6-carboxylic acid piperidinamide (Compound No. 57) prepared in Example 28 were used.
The kidney disease model rats were prepared as in Example 38. Fifteen groups (8 rats per group) were prepared in a manner such that there was no major difference between the groups in the serum creatinine value and the blood urea nitrogen value indicating renal function. The rats in each group were allowed to freely take up food and water. […] To the rats in the control group, only water was forcibly orally administered every day. If kidney diseases are aggravated, the rat will die of uremia. Thus, the survival time was observed as a comprehensive indication of the improvement of the effect on the kidney diseases. The observation period was eight weeks. Thus if all rats survived, the average survival time is eight weeks, and is an upper limit.

Experiment [5] has as its system kidney disease model rats. The experiment in a line: Action to lower blood pressure in kidney disease model rats. The note with it: 20 mg/kg oral. It counts as in vivo, Sprague-Dawley female rats. As to the method: as §1, with “In this Example, an action to lower blood pressure was evaluated. That is, each of 2-ethoxy-1-[[4'- (2'-N,N-dimethylamino-ethoxycarbonyl) phenyl]methyl]-1H-benzimidazole-6-carboxylic acid morpholide (Compound No. 13) prepared in Example 6, 2-ethoxy-1-[[4'-(2"-morpholinoethoxycarbonyl)-phenyl]methyl]-1H-benzimidazole-6-carboxylic acid piperidinamide (Compound No. 57) prepared in Example 28, or the reference substance was forcibly orally administered to kidney disease model rats, and the action of lowering the blood pressure was observed. The kidney” for “The kidney”

Read-outs that look alike come from different tables or passages of the source.

As to `CCCCc1nc(Cl)c(CO)n1Cc1ccc(-c2ccccc2-c2nnn[nH]2)cc1` [DuP753, 2-butyl-4-chloro-5-(hydroxymethyl)-1-[[2'-(1H-tetrazole-5-yl)biphenyl-4-yl]methyl]imidazole, reference compound], in experiment [1], the “effect in proteinuria and glomerulosclerosis” value was “effective in proteinuria and glomerulosclerosis”; the “lowering of the blood pressure” value was “explicit lowering of the blood pressure”. Further, in experiment [2] (higher dose), the “lowering of the blood pressure” value was “explicit lowering of the blood pressure” and the renal lesion entry is “more effective in the renal lesion”. Moreover, in experiment [2] (lower dose), the “influence on the blood pressure” value is given as “without a substantial influence on the blood pressure” and the renal lesion entry is “renal lesion is improved”. Further, in experiment [3] (control 0.22), the Creatinine clearance came to 0.32 mL/min. This compound came in with a Creatinine in experiment [3] (serum, control 2.0) of 1.6 mg/dL. In experiment [3] (serum, control 100), the Blood urea nitrogen stood at 80 mg/dL. This compound displayed an Average survival time in experiment [4] of 6.9 weeks. The “action of lowering the blood pressure” value in experiment [5] (in comparison with the control group) is on record as “clearly exhibited the action of lowering the blood pressure”. The Blood pressure in experiment [5] (systolic, tail cuff, average, two days after administration, control 210) is 130 mmHg.
